We go through one molecule from patent publication US20030027791A1, “Composition and method for reducing adverse interactions between phenothiazine derivatives and plasma using cyclodextrins” (Wyeth, priority 2001, published 2003).

Data set [1] can be described thus: Precipitate formation when promethazine hydrochloride preparation is mixed with plasma in vitro. The data set is classed as physicochemical. Particulars: mixing ratio not stated. From the text:
Without being bound by any particular theory, it is believed that this precipitate formation could be related to the venous thrombosis found at the injection site, as well as the cause of other local adverse reactions involving promethazine hydrochloride injection. […] With a composition according to one or more of the embodiments set forth herein, it is expected that a promethazine hydrochloride solution given by the routes of i.v. and i.m. (intramuscular) injection would have fewer incidences of irritation and other adverse reactions at the site of injection.

The conditions of data set [2]: intravenous use; cited from earlier work.
For data set [3] the following is noted: in vivo; cited from earlier work.

For the molecule `CC(CN1c2ccccc2Sc2ccccc21)N(C)C.Cl` (racemic) [promethazine hydrochloride, 10H-Phenothiazine-10-ethanamine, N,N, α-trimethyl-, monohydrochloride, (±)-], in data set [1], the “Precipitate formation when solution is mixed with plasma in vitro” value is on record as “precipitates form immediately”. For the same molecule, the “Adverse reactions at the injection site” value in data set [2] is “some incidents of venous thrombosis at the injection site have been encountered”. Further, the “Plasma creatine kinase levels” value in data set [3] is reported as “raise plasma creatine kinase levels”.
